Where two headings read alike, the source gives them in different places.
Legend:
mouse L 1210 leukemia [1] = assay: L1210 leukemia in mice: inoculum of 10^5 cells, single dose of compound 24 hours later; format: in vivo; conditions: for Criterion (iv): persistence of the antileukemic action after an intravenous injection: L1210 in vivo; for ILS (increased life span) %: I.V., dose 1 (the sublethal dose), inoculum 10^5 L1210 cells
mouse L 1210 leukemia [2] = assay: as above; format: in vivo; conditions: for % of killed cells / ILS (increased life span) % / Mean survival in days for treated mice: inoculum 10^5 L1210 cells; for Cured animals: cured/total
Source text: The experimental tumor mouse L 1210 leukemia is commonly used to evaluate the effects of all the antitumor compounds now used in human therapeutics,as was described, for example, by C. C. ZUBROD in Proc. Nat. Acad. Sci. USA 69, 1972, pp. 1042-1047. This experimentally formed tumoral system permits very accurate quantitative evaluation of the activity of the compound tested and also, consequently, an objective comparison of the respective activities of various compounds, for example, according to the methods described by H. E. SKIPPER, F. M. SCHABEL Jr. and W. S. WILCOX in Cancer Chemiother. Rep. 1964, pp. 1-111 and 45, 1965, pp. 5-28.
(§1) The mice were randomized in each experimental series. A first routine experiment enable the death rate by toxicity to be determined and thus established the sublethal doses.
According to the convention in force in this field, the animals which survived longer than 45 days after inoculation of tumoral cells were considered to be cured.
(§2) To evaluate the therapeutic activity of the compounds of the invention, doses of said compound were expressed basing them on the 30 days sublethal dose which was fixed at 1.
A--A tumoral inoculum of 10^5 L1210 leukemia cells was administered by the intraperitoneal way to twenty 2 to 3 months old DBA/2 strain female mice. 24 hours later, half of said mice received a single intraperitoneal injection of a variable dose of the compound to be tested and the same volume of solvent was administered to the other half of the mice by the same way; this latter half of the group of mice was therefore used as the control series. The mice were randomized in each experimental series.
Animals surviving for longer than 45 days were considered to be cured.

Solubility = format: physicochemical
[3] = for LDo (highest non lethal dose / sublethal dose) for mice: route not given; for DLo (I.P.): single i.p. injection
Source text: as §1, §2

[4] = Metabolic studies in mice
[5] = Autoradiography with 14C-labeled molecules (biodisponibility); format: in vivo
Source text: To understand the increase of the antitumor efficiency of the quaternarized compounds, several parameters of action of 9--OH--E and its methyl derivative have been comparatively established (see table III). Both compounds have about the same affinity for DNA. On a weight basis, the methyl compound is about 10 times more toxic in mice but also 10 times more efficient on leukemic mice (ILS). […] Therefore, there is no quantitative parallel between the in vivo and in vitro action of these drugs. The N-quaternization markedly changes the biodisponibility of the drugs as shown by autoradiography with ^14 C-labeled molecules. […] Several ellipticine derivatives are mutagenic on Ames Salmonella test; however, the quaternized derivatives lose this property. The microsomes, which are able to metabolize some ellipticines, increase the mutagenic ability of these drugs in vitro. […] Due to the curved shape of their molecules, their relative hydrophobicity, and the presence of a heterocyclic nitrogen, the ellipticines are good substrates for the cytochrome P450 system, provided that the 2-N remains uncharged.

DNA = DNA affinity; format: binding
[6] = I.P., dose 0.1 of the sublethal dose
[7] = I.P., dose 1 (the sublethal dose)
[8] = I.P., dose 0.002 of the sublethal dose
[9] = I.P., dose 0.01 of the sublethal dose
[10] = I.P., dose 0.02 of the sublethal dose
[11] = I.P., dose 0.2 of the sublethal dose

9-hydroxy-2(β-diisopropylamino-ethyl)-ellipticiniu acetate
Criterion (iv): persistence of the antileukemic action after an intravenous injection (mouse L 1210 leukemia [1]): +
% of killed cells (mouse L 1210 leukemia [2]; [6]): < 90%
ILS (increased life span) % (mouse L 1210 leukemia [2]; [6]): 110%
Mean survival in days for treated mice (mouse L 1210 leukemia [2]; [6]): 10.7 days
% of killed cells (mouse L 1210 leukemia [2]; [7]): < 90%
ILS (increased life span) % (mouse L 1210 leukemia [2]; [7]): 110%
Mean survival in days for treated mice (mouse L 1210 leukemia [2]; [7]): 10.9 days

CCn1c2ccc(O)cc2c2c(C)c3c[n+](CC)ccc3c(C)c21 [9-hydroxy-2,6-diethyl-ellipticinium acetate]
Solubility (Solubility): well water soluble
Solubility (Solubility; water, read-out: Concentration of easily prepared aqueous solution): 4000 µg/mL

Cc1c2c[n+](C)ccc2c(C)c2c1c1cc(O)ccc1n2C [9-hydroxy-2,6-dimethyl-ellipticinium acetate]
LDo (highest non lethal dose / sublethal dose) for mice [3]: 50 mg/kg
Therapeutic index (mouse L 1210 leukemia [2]; L1210): extremely high

Cc1c2ccncc2c(C)c2c1[nH]c1ccc(O)cc12 [Example 9-OH--E, 9-hydroxy-ellipticine, reference compound]
Metabolism [4]: only glucuroconjugated
Elimination [5]: mostly eliminated through the bile into feces
Organ distribution (autoradiography) [5]: concentrates in several organs, including the lungs and the pancreas
Kd (DNA): 435 nM
LDo (highest non lethal dose / sublethal dose) for mice [3]: 50 mg/kg
ED (ILS 25%) (mouse L 1210 leukemia [2]; Mus musculus, L1210, ip, read-out: L 1210 cells: in vivo dose to reach ILS 25%): 10 mg/kg

CC[n+]1ccc2c(C)c3[nH]c4ccc(O)cc4c3c(C)c2c1 [9-hydroxy-2-ethyl ellipticinium acetate, 9-hydroxy-2-ethyl-ellipticinium acetate]
DL100 (I.P.) ([3]; mice, I.P.): 100 mg/kg
DL 100 (I.V.) ([3]; mice, I.V.): 20 mg/kg
DLo (I.V.) ([3]; mice, I.V.): 15 mg/kg
DLo (I.P.) ([3]; mice): 50 mg/kg
ILS (increased life span) % (mouse L 1210 leukemia [1]): 124%
Criterion (iv): persistence of the antileukemic action after an intravenous injection (mouse L 1210 leukemia [1]): +
ILS (increased life span) % (mouse L 1210 leukemia [2]; [8]): 114%
ILS (increased life span) % (mouse L 1210 leukemia [2]; [9]): 122%
ILS (increased life span) % (mouse L 1210 leukemia [2]; [10]): 132%
ILS (increased life span) % (mouse L 1210 leukemia [2]; I.P., dose 0.05 of the sublethal dose): 132%
ILS (increased life span) % (mouse L 1210 leukemia [2]; [6]): 175%
ILS (increased life span) % (mouse L 1210 leukemia [2]; [11]): 219%
ILS (increased life span) % (mouse L 1210 leukemia [2]; I.P., dose 0.4 of the sublethal dose): 165%
ILS (increased life span) % (mouse L 1210 leukemia [2]; I.P., dose 0.6 of the sublethal dose): 188%
ILS (increased life span) % (mouse L 1210 leukemia [2]; [7]): 157%
ILS (increased life span) % (mouse L 1210 leukemia [2]; I.V., dose 0.33 of the sublethal dose): 118%
Chemotherapeutic index (mouse L 1210 leukemia [2]; L1210 in vivo): 75
Criterion (ii): occurrence of cured animals (mouse L 1210 leukemia [2]; L1210 in vivo): +
Increased life span (ILS) (mouse L 1210 leukemia [2]; L1210 in vivo, dose LDo /5): 119%
Cured animals (mouse L 1210 leukemia [2]; L1210 in vivo, dose LDo /5): 3/20
Criterion (i): ILS higher than 100% (mouse L 1210 leukemia [2]; L1210 in vivo, intraperitoneal injection of 10^5 cells): + (increased life span (ILS) higher than 100% after intraperitoneal injection of 10^5 cells)

CC(=O)Oc1ccc2c(c1)c1c(C)c3c[n+](C)ccc3c(C)c1n2C [9-acetoxy-2,6-dimethyl-ellipticinium acetate]
LDo (highest non lethal dose / sublethal dose) for mice [3]: 50 mg/kg
Antitumoral activity on L1210 leukemia (comparison in words) (mouse L 1210 leukemia [2]; mouse, in vivo): comparable with that of the 9-hydroxy-2,6-dimethyl-ellipticinium acetate

CCN(CC)CC[n+]1ccc2c(C)c3[nH]c4ccc(O)cc4c3c(C)c2c1 [9-hydroxy-2(β-diethylamino-ethyl)-ellipticinium acetate]
DLo (I.V.) ([3]; mice, I.V.): 5 mg/kg
DLo (I.P.) ([3]; mice): 50 mg/kg
ILS (increased life span) % (mouse L 1210 leukemia [1]): 112%
ILS (increased life span) % (mouse L 1210 leukemia [2]; [8]): 119%
ILS (increased life span) % (mouse L 1210 leukemia [2]; [9]): 137%
ILS (increased life span) % (mouse L 1210 leukemia [2]; [10]): 139%
ILS (increased life span) % (mouse L 1210 leukemia [2]; [6]): 173%
ILS (increased life span) % (mouse L 1210 leukemia [2]; [11]): 151%
ILS (increased life span) % (mouse L 1210 leukemia [2]; I.P., dose 0.3 of the sublethal dose): 243%
ILS (increased life span) % (mouse L 1210 leukemia [2]; I.P., dose 0.5 of the sublethal dose): 196%
Chemotherapeutic index (mouse L 1210 leukemia [2]; L1210 in vivo): 100
Criterion (ii): occurrence of cured animals (mouse L 1210 leukemia [2]; L1210 in vivo): +
Cured animals (mouse L 1210 leukemia [2]; L1210 in vivo, dose LDo /2): 6/20
